“And” between values parts separate entries of the source, which are not always exact repeats. Identical values can stand only once. Bounds are passed on as bounds.

Experiment [1] relates to ethanol-induced ulceration in rats. The experiment in a line: Inhibition of ethanol-induced ulceration in rats. It is filed as in vivo, rat. Conditions: oral dose of 30 mg/kg; for inhibition in vivo at 30 mg/kg: Rattus norvegicus, po. As for the experimental part: The antiulcer activity of the products of this invention was also determined by an ethanol-induced rat ulcer assay. […] One hour after the ethanol challenge the animals (8/group) are killed and the stomachs examined for the presence of lesions. After sacrifice the abdomen is opened and a locking hemostat placed at the pylorus. Six ml of a 4% solution of formaldehyde was injected into the stomach with a gastric feeding tube and a second locking hemostat was used to seal the esophagus. The stomach was removed, opened along the greater curvature and examined for ulceration.
The scoring system used to quantitate the ethanol-induced lesions is given below.
For each group of animals an ulcer index is calculated as follows:
Ulceration Index=(the sum of the scores of the group)×(the sum of the number of ulcers in the group)×(the fraction of the group having any incidence of ulceration).
The percentage inhibition of ulcers is calculated as follows:
% Inhibition=100×[(ulcer index controls)-(ulcer index
drug-treated)].div.(ulcer index controls).

Another experiment deals with Heidenhain pouch dogs. The experiment in a line: Gastric acid antisecretory activity in pentagastrin-stimulated conscious Heidenhain pouch dogs. It is filed as in vivo, dog. Conditions: intravenously. The method, then:
The gastric acid antisecretory activity of compounds of the present invention was determined in overnight fasted, conscious Heidenhain pouch dogs. Pentagastrin (Pentavolon-Ayerst) was used to stimulate acid output by continuous infusion into a superficial leg vein at doses earlier determined to stimulate near maximal acid output from the gastric pouch. Gastric juice was collected at 30 minute intervals following the start of a pentagastrin infusion and measured to the nearest 0.1 ml. Ten collections were taken for each dog during an experiment. Acid concentration was determined by tritrating 1.0 ml of gastric juice to pH 7.4 with 0.1 N sodium hydroxide using an Autoburette and a glass electrode pH meter (Radiometer).
Drug or vehicle was given intravenously 90 minutes following the start of the pentagastrin infusion, at a dose of 1 mg/kg or less. Gastric acid antisecretory effects were calculated by comparing the lowest acid output after drug administration with the mean acid output immediately before drug.

The next experiment addresses T1, H2 -receptor (Cavia porcellus, UniProt P47747).
T1 construct: the heart removed and the right atria dissected free; from tissue; host or cells: guinea pig right atria
The experiment in a line: Histamine-H2 antagonist activity in isolated guinea pig right atria. It is filed as cell-based. Conditions: histamine dose-response, read-out: pA2 (apparent dissociation constant of the H2-receptor antagonist) (converted). As for the experimental part: The histamine-H2 antagonist activity of compounds of the present invention was determined by the following procedure:
Guinea pigs are killed rapidly with a blow to the head, the heart removed and the right atria dissected free. Atria are suspended, isometrically, in a temperature-controlled (32°±2°) tissue bath (10 ml) containing oxygenated (95% O2; 5% CO2) Krebs-Henseleit buffer (pH 7.4) and are allowed to stabilize approximately one hour during which time the tissue bath is flushed several times. Individual atrial contractions are followed with a force-displacement transducer connected to a cardiotachometer and Grass polygraph recorder. After obtaining a dose-response curve to histamine, the bath containing each atrium is flushed several times with fresh buffer and the atria reequilibrated to basal rates. Following the return to basal rate, test compounds are addded at selected final concentrations and the histamine dose-response curve is again determined in the presence of antagonist. Results are expressed as dose-ratios, the ratio of histamine concentrations required to produce one-half of maximal stimulation in the presence and absence of antagonist, and the apparent dissociation constant of the H2 -receptor antagonist pA2, is determined.

[2] abbreviates: dose of 1 mg/kg, pentagastrin-stimulated Heidenhain pouch dogs.

T1 sequence (P47747 whole entry): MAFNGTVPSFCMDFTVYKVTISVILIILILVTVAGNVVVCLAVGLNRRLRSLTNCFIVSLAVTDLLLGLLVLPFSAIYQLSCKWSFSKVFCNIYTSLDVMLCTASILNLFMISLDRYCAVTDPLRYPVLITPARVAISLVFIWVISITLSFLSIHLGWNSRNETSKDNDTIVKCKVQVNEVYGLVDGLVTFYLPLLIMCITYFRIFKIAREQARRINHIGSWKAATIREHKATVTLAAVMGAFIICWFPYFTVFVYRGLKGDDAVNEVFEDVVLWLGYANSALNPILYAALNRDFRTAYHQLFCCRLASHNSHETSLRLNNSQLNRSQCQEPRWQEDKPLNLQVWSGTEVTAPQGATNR

For `NC(N)=Nc1nc(-c2c[nH]c(N3CCOCC3)n2)cs1` [product aa], the “inhibition of ethanol-induced ulceration” value in experiment [1] is listed as “no significant activity”.

For `NC(N)=Nc1nc(-c2c[nH]c(N3CCCC3)n2)cs1` [product bb], the inhibition in vivo at 30 mg/kg in experiment [1] is ≥ 19%.

On to `NC(N)=Nc1nc(-c2c[nH]c(N3CCCCC3)n2)cs1` [product cc], for which the “inhibition of gastric secretion” value in the experiment on Heidenhain pouch dogs (0.1 mg/kg, Heidenhain pouch dogs) is 72%; in the experiment on Heidenhain pouch dogs (setting [2]) it was “at least 21%”. In experiment [1], the inhibition in vivo at 30 mg/kg is ≥ 19%.

Regarding `CC(C)CCNc1nc(-c2csc(N=C(N)N)n2)c[nH]1` [product m], in experiment [1], the inhibition in vivo at 30 mg/kg was ≥ 19%.

With `NC(N)=Nc1nc(-c2c[nH]c(NC3CC3)n2)cs1` [product n], the “inhibition of gastric secretion” value in the experiment with Heidenhain pouch dogs (setting [2]) is recorded as “at least 21%”; with Heidenhain pouch dogs (dose of 3 microg/kg, Heidenhain pouch dogs), 42%. In addition, the Kb at H2 -receptor was ≤ 1260 nM and ≤ 100 nM and 1.58 nM. The compound also yielded an inhibition in vivo at 30 mg/kg in experiment [1] of 7 to 13%.

Take `NC(N)=Nc1nc(-c2c[nH]c(NC3CCCC3)n2)cs1` [product o]: the Kb on H2 -receptor was ≤ 1260 nM. The “inhibition of ethanol-induced ulceration” value in experiment [1] is “no significant activity”.

For the compound `NC(N)=Nc1nc(-c2c[nH]c(NC3CCCCC3)n2)cs1` [product p], the inhibition in vivo at 30 mg/kg in experiment [1] fell in the range of 7 to 13%.

`NC(N)=Nc1nc(-c2c[nH]c(NCc3ccccc3)n2)cs1` [product q] came in with an inhibition in vivo at 30 mg/kg in experiment [1] of 7 to 13%.

For the compound `NC(N)=Nc1nc(-c2c[nH]c(NCCc3ccccc3)n2)cs1` [product r], the “inhibition of gastric secretion” value with Heidenhain pouch dogs (setting [2]) is on record as “at least 21%”.

For `NC(N)=Nc1nc(-c2c[nH]c(NCCCc3ccccc3)n2)cs1` [product s], the Kb at H2 -receptor was ≤ 100 nM. The inhibition in vivo at 30 mg/kg in experiment [1] lay within 86 to 100%.

Regarding `NC(N)=Nc1nc(-c2c[nH]c(NCCCCc3ccccc3)n2)cs1` [product t], at H2 -receptor, the Kb was ≤ 100 nM. In experiment [1], this compound yielded an inhibition in vivo at 30 mg/kg of 86 to 100%.

In turn, `NC(N)=Nc1nc(-c2c[nH]c(NCCc3ccncc3)n2)cs1` [product u] gave an inhibition in vivo at 30 mg/kg in experiment [1] of 21 to 51%.

On to `NC(N)=Nc1nc(-c2c[nH]c(NCCc3ccccn3)n2)cs1` [product v], for which the “inhibition of ethanol-induced ulceration” value in experiment [1] was “no significant activity”.

For `NC(N)=Nc1nc(-c2c[nH]c(NCCc3ccc(Cl)cc3)n2)cs1` [product w], in the experiment with Heidenhain pouch dogs (the same (1 mg/kg) or a lower dose, Heidenhain pouch dogs), the “inhibition of gastric secretion” value is “at least 97%”. For the same compound, the Kb on H2 -receptor is ≤ 100 nM.

Consider `CN(C)c1nc(-c2csc(N=C(N)N)n2)c[nH]1` [product x], for which the “inhibition of ethanol-induced ulceration” value in experiment [1] is “no significant activity”.

`CCN(C)c1nc(-c2csc(N=C(N)N)n2)c[nH]1` [product y]: in experiment [1], the inhibition in vivo at 30 mg/kg is ≥ 19%.

As for `CCN(CC)c1nc(-c2csc(N=C(N)N)n2)c[nH]1` [product z], in experiment [1], the inhibition in vivo at 30 mg/kg was ≥ 19%.

The term inhibition in vivo denotes the percentage by which the read-out fell short of the control.
